In US9988462B2, “Material and methods for treating or preventing HER-3 associated diseases” (Daiichi Sankyo Europe GmbH, priority 2005, dated 2018):

Tests used:
[1] = test system: HER3 phosphorylation in A549 cells; assay: Reactivation study: pHER3 ELISA in A549 cells; assay type: cell-based, human
Protocol: Experiments were performed in triplicate wells and repeated at least 2 times. Results are expressed as mean±SD.
A549 cells were plated in Ham's F-12 medium (Gibco), all media supplemented with 10% FBS (Hyclone, Logan, Utah) and 1× L-glutamine (Gibco). Cells were serum-starved overnight. […] Cells were washed with cold PBS after their respective treatment time points and lysed using RIPA buffer (20 mM Tris-HCl pH 7.5, 1% Igepal, 1% sodium deoxycholate, 150 mM NaCl, 0.1% SDS, 1% Triton X-100) containing 200 μM phenylmethanesulfonylfluoride (PMSF) (Fluka Biochemica), 200 μM Halt protease inhibitor cocktail kit (Pierce Biotechnology), and 200 μM sodium orthovanadate (Sigma-Aldrich, St. Louis, Mo.). The lysates were passed through QIA shredder columns (Qiagen) and the flow-through quantitated using a spectrophotometer (Beckman Coulter, Fullerton, Calif.). Proteins, 50 μg per well, were analyzed in duplicate for pHER3 using ELISA Duoset (R&D systems) according to manufacturer's protocol.

rat HER-3 = biological target: T1, rat HER-3 (Rattus norvegicus, UniProt Q62799); assay: ELISA cross-reactivity with rat HER-3; assay type: binding
T1 construct: The cDNAs expressing the ECD of human and rat HER-3 were cloned into mammalian expression vectors as V5-His fusion proteins; V5-His; made in house; host or cells: mammalian expression vector; HEK 293T is named only for the chimeras
T1 sequence (Q62799 20-643 limits assumed): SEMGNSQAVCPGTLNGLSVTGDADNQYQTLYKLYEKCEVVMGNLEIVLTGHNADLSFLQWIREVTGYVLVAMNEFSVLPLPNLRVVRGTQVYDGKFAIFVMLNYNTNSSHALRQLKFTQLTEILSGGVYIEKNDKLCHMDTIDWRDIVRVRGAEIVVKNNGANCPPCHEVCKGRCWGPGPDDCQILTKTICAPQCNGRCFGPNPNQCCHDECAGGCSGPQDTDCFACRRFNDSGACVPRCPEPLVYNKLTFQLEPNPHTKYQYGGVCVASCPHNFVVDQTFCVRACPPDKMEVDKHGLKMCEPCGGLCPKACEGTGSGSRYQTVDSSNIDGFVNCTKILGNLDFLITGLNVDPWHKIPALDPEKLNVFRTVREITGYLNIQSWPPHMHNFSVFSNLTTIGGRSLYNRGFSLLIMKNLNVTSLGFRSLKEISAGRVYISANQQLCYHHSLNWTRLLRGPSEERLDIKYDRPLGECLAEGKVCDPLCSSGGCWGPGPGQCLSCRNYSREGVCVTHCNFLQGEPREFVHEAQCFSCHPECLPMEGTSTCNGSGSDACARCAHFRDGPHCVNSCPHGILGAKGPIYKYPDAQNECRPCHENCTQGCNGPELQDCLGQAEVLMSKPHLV
Excerpt: The extra-cellular domain (ECD) of Human HER-3 cDNA was amplified from RAT1-HER-3 cells. The rat HER-3 cDNAs was amplified by RT-PCR from rat liver RNA and confirmed by sequencing. The cDNAs expressing the ECD of human and rat HER-3 were cloned into mammalian expression vectors as V5-His fusion proteins. Domains from the human HER-3 ECD were swapped into the scaffold provided by the rat HER-3 ECD by using the Mfe1, BstX1 and DraIII internal restriction sites. By this means, various chimeric rat/human HER-3 ECD HIS fusion proteins (amino acids 1-160, 161-358, 359-575, 1-358, 359-604) were constructed and expressed via transient transfection of HEK 293T cells. Expression of the constructs was confirmed using a rat polyclonal antibody against human HER-3. The human monoclonal antibodies were tested in ELISA for binding to the secreted chimeric ECDs.

[2] = biological target: T2, reduced, denatured HER-3-His tagged purified ECD protein (Homo sapiens, UniProt P21860); assay: Dot blot analysis of reduced, denatured HER-3 ECD; assay type: binding
T2 construct: The extracellular domain of HER-3 (ECD) cDNA was cloned by polymerase chain reaction (PCR); His (C); made in house; host or cells: HEK293

[3] = biological target: T3, L1-S1 extra-cellular domains of HER-3 (Homo sapiens, UniProt P21860); assay: ELISA binding to truncated L1-S1 HER-3 protein
T3 construct: L1 domain (aa 19-184), in the S1 (aa 185-327); V5-His (C); made in house; host or cells: HEK 293T (supernatant)

BxPC3 [4] = assay: BxPC3 pancreatic tumor xenograft in SCID mice (established tumors); assay type: in vivo, mouse; settings: BxPC3, CB17 SCID mice; for tumor growth: 50 mg/kg then 25 mg/kg once weekly i.p.
Protocol: As controls sets of mice treated with either the vehicle control, PBS, or the established therapeutic antibody, Erbitux, were included. 5×10^6 BxPC3 cells were inoculated subcutaneously without Matrigel into CB17 SCiD mice. […] Thereafter the mice received once weekly 25 mg/kg injections for the duration of the study.

BxPC3 [5] = assay: BxPC3 xenograft in SCID mice, combination with Erbitux; assay type: in vivo, mouse; settings: BxPC3 with Matrigel, CB17 SCID mice, weekly i.p. for six weeks
Protocol: 5×10^6 BxPC3 cells were inoculated subcutaneously with Matrigel into CB17 SCID mice. After tumor volumes had reached 200 mm^3, mice were randomized into individual treatment groups. […] All antibodies were dosed at a single loading dose of 50 mg/kg/week, followed by weekly injections of 25 mg/kg for six weeks. Control arms received bi-weekly administrations of Gemcitabine (120 mg/kg), weekly pooled human IgG or weekly vehicle (PBS) injections. The regimens are detailed in TABLE 9 below.

[6] = test system: HER-3 phosphorylation (pHER-3); assay: Pharmacodynamic pHER-3 immunoblot of BxPC3 tumor xenografts; assay type: in vivo, mouse; settings: 500 μg on day 1 and day 4, sacrificed day 5
Protocol: The inhibition of HER-3 in the human pancreatic tumors could also be shown in a pharmacodynamic experiment. The BxPC3 tumor xenografts were grown as described above. […] The mice were treated on day 1 and day 4 and then sacrificed on day 5 to measure the antibody-dependent inhibition of HER-3 phosphorylation (pHER-3).
The tumors were homogenized in a standard RIPA buffer with protease inhibitors. 50 μg clear lysate was separated on a 4-20% Tris-glycine gel, transferred onto a nitrocellulose membrane and blocked in 3% bovine serum albumin (BSA). Immunoblotting was performed using an anti-pHER-3 antibody (antibody 21D3, Cell Signaling technology). An anti-actin antibody (AB a-2066, Sigma) was used as a control.
Expression was detected by enhanced chemiluminescence (Amersham Biosciences, Piscataway, N.J.). The images were captured with the Versadoc 5000 Imaging System (BioRad, Hercules, Calif.). […] See, FIG. 20 of US Publication No. 20080124345.

Calu-3 NSCLC xenografts = assay: Calu-3 NSCLC xenograft, U1-59 with panitumumab or erlotinib; assay type: in vivo, mouse; settings: Calu-3, twice a week; 100 μg U1-59, 100 μg panitumumab, 25 μg erlotinib
Protocol: (§1) To determine in vivo efficacy, mice bearing ˜200 mm^3 Calu-3 NSCLC xenografts were treated twice a week with anti-HER family inhibitors or control. Other experiments were done with A549 cells.

[7] = test system: SkBr-3 breast cancer cells; assay: Anchorage-independent growth of SkBr-3 cells; assay type: cell-based, human
Protocol: (§2) IgG was used as a negative control for all studies. Tumor cell colonies formed in the absence or presence of HRG for 6 to 10 days and were stained with MTT for 4 to 6 hours and quantified.

MDA-MB-435 cells = assay: Anchorage-independent growth of MDA-MB-435 cells; assay type: cell-based, human; settings: basal MDA-MB-435
Protocol: as §2

[8] = test system: MDA-MB-175VII breast cancer cells; assay: Proliferation of MDA-MB-175VII cells (ALOMAR BLUE); assay type: cell-based, human; settings: four days
Protocol: After four days, the growth of treated cells was measured with ALOMAR BLUE™.

A549 cells = assay: Anchorage-independent growth of A549 cells; assay type: cell-based, human; settings: A549, 10 μg/mL, 10 days
Excerpt: (§3) Tumor cell colonies formed in the absence of exogenous ligand for 10 days and were stained with MTT and quantified using a Scanalyzer HTS camera imaging system.

A549 NSCLC xenograft = A549 NSCLC xenograft model; assay type: in vivo, mouse; settings: vs IgG control or other HER mAbs
Protocol: as §1, §3

HCC-1569 = HCC-1569 breast cancer xenograft, U1-59 and lapatinib; assay type: in vivo, mouse; settings: HCC-1569 xenograft
[9] = test system: BxPC3 pancreatic xenografts; assay: BxPC3 xenograft dose/schedule efficacy (PK/PD/Efficacy model); assay type: in vivo, mouse; settings: vs IgG control
Protocol: (§4) Inhibition of pHER in the BxPC3 xenograft tumors was analyzed by western blotting. A PK/PD/Efficacy model (based on Simeoni et al. (2004) Cancer Res. 64:1094-1101) was used to prospectively select dose and schedule for further testing. To confirm the PK/PD/Efficacy model, BxPC3 pancreatic tumor-bearing mice were treated with 400 μg/mouse biweekly and 200 μg/mouse biweekly, weekly and twice a week. […] The relationship between drug concentration, inhibition of pHER-3 in animals, and interspecies PK scaling was used to select the minimally effective dose for the first in human study.

pHER-3 = pHER-3 in BxPC3 xenograft tumors (quantitative Western blot); assay type: in vivo, mouse; settings: for inhibition of pHER-3: quantitative Western blot
Protocol: as §4

[10] = Serum concentration of U1-59 at necropsy; assay type: in vivo, mouse
Protocol: as §4

[11] = Interspecies scaling of U1-59 PK to human; settings: estimated by interspecies scaling (mice, rat, monkeys)
Protocol: as §4

[12] = test system: HER-3 phosphorylation in MCF-7 cells; assay: HRG-β induced HER-3 phosphorylation in MCF-7 cells (ELISA); assay type: cell-based, human; settings: 10 nM HRG-β for 10 min, read-out: IC50, inhibition of phosphorylation of HER-3
Protocol: Lysates were transferred to 1B4 (mouse anti-HER-3 mAb) ELISA plates and phosphorylation of HER-3 was analyzed with antibody 4G10. […] See, FIG. 7b of US Publication No. 20080124345.

[13] = A549, 24 hours, 50 μg/ml U1-59, 5 μM gefitinib

With `COc1cc2ncnc(Nc3ccc(F)c(Cl)c3)c2cc1OCCCN1CCOCC1` [gefitinib, 4-(3-chloro-4-fluorophenylamino)-7-methoxy-6-[3-(4-morpholinyl)propoxy]quinazoline] as the molecule, how does the HER3 phosphorylation ([1]; A549, 1 hour, 5 μM gefitinib) read?
The HER3 phosphorylation was “partial inhibition of HER phosphorylation”.

And the HER3 phosphorylation [1, 13]?
Its HER3 phosphorylation is “reversed to control levels after 24 hours”.

What does the source list for “U1-59: human anti-HER-3 antibody, SEQ ID NO: 70/72”?
Rat XR (cross-reactive) (rat HER-3): cross-reacted with rat HER-3 and Yes; binding in dot blot analysis [2]: absence of binding; binding to the L1-S1 protein [3]: bound to the L1-S1 protein; delay of tumor growth compared with Erbitux (BxPC3 [4]): more effective than the EGF-R-targeting antibody Erbitux at delaying tumor growth; tumor growth (BxPC3 [4]): reduced the growth of the human pancreatic tumors in a cytostatic fashion; tumor growth (BxPC3 [5]): delayed the growth of the human pancreatic tumors to the same degree as Gemcitabine; phosphorylation of HER-3 in tumors [6]: no longer detectable; tumor growth (Calu-3 NSCLC xenografts): greatly reduced tumor growth as compared to control; inhibition of colony growth [7]: 50%; colony growth / colony formation (MDA-MB-435 cells): did not inhibit colony growth; reduction of HRG-stimulated proliferation [8]: up to 40%; inhibition of colony growth (A549 cells): 50%; tumor growth (A549 NSCLC xenograft): tumor stasis; tumor growth (HCC-1569): did not inhibit HCC-1569 tumor growth; inhibition of tumor growth ([9]; 200 μg/mouse biweekly): 33%; inhibition of tumor growth ([9]; 200 μg/mouse twice a week): 70%; inhibition of tumor growth ([9]; 200 μg/mouse weekly): 74%; inhibition of tumor growth ([9]; 400 μg/mouse biweekly): 50%; inhibition of pHER-3 (pHER-3; 200 μg/mouse biweekly): 58%; inhibition of pHER-3 (pHER-3; 200 μg/mouse twice a week): 20%; inhibition of pHER-3 (pHER-3; 200 μg/mouse weekly): 23%; inhibition of pHER-3 (pHER-3; 400 μg/mouse biweekly): 30%; trough concentration needed to achieve 90% maximal pHER-3 inhibition (IC90) (pHER-3; BxPC3 xenograft mice, estimated): ~3 μg/ml; Serum concentration at necropsy, mean (SD) ([10]; 200 μg/mouse biweekly): 0.45 (0.21) μg/mL; Serum concentration at necropsy, mean (SD) ([10]; 200 μg/mouse twice a week): 34.9 (9.1) μg/mL; Serum concentration at necropsy, mean (SD) ([10]; 200 μg/mouse weekly): 3.08 (0.82) μg/mL; Serum concentration at necropsy, mean (SD) ([10]; 400 μg/mouse biweekly): 2.07 (0.97) μg/mL; clearance (CL) in man [11]: 11 mL/day/kg; initial volume of distribution (Vd) in man [11]: 0.028 L/kg; HER3 phosphorylation [1, 13]: greater inhibition of HER phosphorylation that was sustained after 24 hours

Which tumor growth (HCC-1569) does the source give for `CS(=O)(=O)CCNCc1ccc(-c2ccc3ncnc(Nc4ccc(OCc5cccc(F)c5)c(Cl)c4)c3c2)o1` [lapatinib, N-[3-chloro-4-[(3-fluorobenzyl)oxy]phenyl]-6-[5-[[[2-(methylsulfonyl)ethyl]amino]methyl]furan-2-yl]quinazolin-4-amine bis(4-methylbenzene-sulfonate)monohydrate, reference compound] here?
The tumor growth was “some, but not significant tumor growth inhibition”.

Which tumor growth (Calu-3 NSCLC xenografts) does the source give for “panitumumab: fully human monoclonal antibody specific to EGF-R [reference compound]” here?
Its tumor growth is “greatly reduced tumor growth as compared to control”.

B1: U1-53: anti-HER-3 antibody, SEQ ID NO: 54/56 (antibody, V domains shown)
VH: EVQLVESGGGLVQPGGSLRLSCAASGFTFSIYSMNWVRQAPGKGLEWVSYISSSSSTIYYADSVKGRFTISRDNAKNSLYLQMNSLRDEDTAVYYCARDRGDFDAFDIWGQGTMVTVSS
VL: DIQMTQSPSSLSASVGDRVTITCQASQDITNYLNWYQQKPGKAPKLLIYDASNLETGVPSRFSGSGSGTDFTFTISSLQPEDIATYNCQQCENFPITFGQGTRLEIK
With B1 as the molecule, how does the “Rat XR (cross-reactive)” value (rat HER-3) read?
Its value is “No”.

And the “binding in dot blot analysis” value [2]?
Its value is “absence of binding”.

And the IC50 [12]?
Its IC50 is 0.14 nM.

And the “delay of tumor growth compared with Erbitux” value (BxPC3 [4])?
Its value is “more effective than the EGF-R-targeting antibody Erbitux at delaying tumor growth”.

What about the tumor growth (BxPC3 [4]) of the same molecule?
Its tumor growth is “reduced the growth of the human pancreatic tumors in a cytostatic fashion”.

And the tumor growth (BxPC3 [5])?
Its tumor growth is “delayed the growth of the human pancreatic tumors to the same degree as Gemcitabine”.
